# According to patent publication US20250213707A1, “COMPOUND FOR INCREASING EFFICACY OF ONCOLYTIC VIRUSES” (ABLEVIA BIOTECH GMBH, priority 2022, published 2025):
# Tested on: IgG from human donors (anti-AAV antibodies)
# Test: Screen for anti-AAV antibodies in human sera, 2452 linear 15-amino-acid AAV peptides on microarrays (Table 1)
# Assay type: binding
# Parameters: key to group I: X: the deduplicated aggregate of the respective top 10 peptide hits for each donor was compiled and designated as group I; key to group II: X: the deduplicated aggregate of the respective top 25 peptide hits for each donor was compiled and designated as group II; key to group III: X: the deduplicated aggregate of the respective top 50 peptide hits for each donor was compiled and designated as group III
# Settings: for group I: membership in deduplicated aggregate of top 10 peptide hits for each donor
# Method: 2452 linear peptides derived from the sequences of 16 different AAVs and with a sequence length of 15 amino-acids each were synthesized.
# Samples obtained from human donors were screened for antibodies against these AAV-derived peptides immobilized on microarrays. To this end, IgG was prepared from blood obtained from the human donors by protein G purification. Each IgG sample was incubated with the peptide microarrays and Ig binding signals were detected by fluorescence. All antibody binding signals to the peptides on the arrays were background subtracted and ranked for each sample and a deduplicated aggregate of the respective top 250 peptide hits for each donor with the corresponding protein sequence of origin (as obtained from UniProt or other sources) was compiled (designated as group IV). Further, the deduplicated aggregate of the respective top 50 peptide hits for each donor was compiled and designated as group III. Further, the deduplicated aggregate of the respective top 25 peptide hits for each donor was compiled and designated as group II. Finally, the deduplicated aggregate of the respective top 10 peptide hits for each donor was compiled and designated as group I.
# Altogether, group I contains 110 distinct peptide hits (assigned to the corresponding AAV vectors in Table 1), group II contains 289 distinct peptide hits, group III contains 428 distinct peptide hits and group IV contains 1271 distinct peptide hits. Evidently, group I is a subset of group II which in turn is a subset of group III which in turn is a subset of group IV. Groups I-IV correspond to the top 4.4%, […], 17.5% and 51.8%, respectively, of all peptides screened.
# [1] = X = peptide belongs to the deduplicated aggregate of the top 50 peptide hits for each donor, linear 15-amino-acid AAV peptides, IgG binding by fluorescence
# [2] = human donor IgG binding to linear 15-amino-acid AAV peptides on microarray, fluorescence
# [3] = membership in deduplicated aggregate of top 25 peptide hits for each donor, human donor IgG binding to linear 15-amino-acid AAV peptides on microarray, fluorescence
# [4] = membership in deduplicated aggregate of top 50 peptide hits for each donor, human donor IgG binding to linear 15-amino-acid AAV peptides on microarray, fluorescence
# [5] = X = peptide in the deduplicated aggregate of the top 50 peptide hits for each donor (top 17.5% of all peptides screened), linear 15-amino-acid AAV peptides on microarrays, human donor IgG, fluorescence
# [6] = X = peptide belongs to the deduplicated aggregate of the top 25 peptide hits for each donor, linear 15-amino-acid AAV peptides, IgG binding by fluorescence
Substance,group III [1],group I [2],group II [3],group III [4],other results
301 (STTLSQNNNSNFAWT; REGION 1..15: note = peptide derived from viral capsid protein) [compound 301],×,,,,
PVPADPPTTESQAK [SEQ ID NO: 1931],,X,X,X,
414 (GNGLDKGEPVNAADA; REGION 1..15: note = peptide derived from viral capsid protein) [compound 414],,,,,group III [5]: X
KNTPVPADPPTTFS (REGION 1..14: note = peptide derived from viral capsid protein) [SEQ ID NO: 1953],,×,X,X,
363 (ASFITQYSTGQVSVE; REGION 1..15: note = peptide derived from viral capsid protein) [compound 363],X,,,,
TAPGKKRPVDQSPQ (REGION 1..14: note = peptide derived from viral capsid protein) [SEQ ID NO: 1923],,X,X,X,
SQSLDRLMNPLIDQ (REGION 1..14: note = peptide derived from viral capsid protein) [SEQ ID NO: 1966],,X,X,X,
470 (ANNLTSTVQVFTDDD; REGION 1..15: note = peptide derived from viral capsid protein) [compound 470],,,,,group III [5]: X
PWGYFDFNRFHCHF (REGION 1..14: note = peptide derived from viral capsid protein) [SEQ ID NO: 1961],,X,X,X,
DSESVPDPQPIGEP (REGION 1..14: note = peptide derived from viral capsid protein) [SEQ ID NO: 1942],,X,X,X,
DAAALEHDKAYDQQ [SEQ ID NO: 1940],,X,X,X,
334 (RQWWKLKPGPPPPKP; REGION 1..15: note = peptide derived from viral capsid protein) [compound 334],X,,,,
291 (KDNVDYSSVMLTSEE; REGION 1..15: note = peptide derived from viral capsid protein) [compound 291],X,,,,
TESVPDPQPIGEPP (REGION 1..14: note = peptide derived from viral capsid protein) [SEQ ID NO: 1929],,X,X,X,
290 (NVDFAVNTDGTYSEP; REGION 1..15: note = peptide derived from viral capsid protein) [compound 290],X,,,,
408 (STTVTQNNNSEFAWP; REGION 1..15: note = peptide derived from viral capsid protein) [compound 408],,,,,group III [5]: X
445 (NNSNFAWTAGTKYHL; REGION 1..15: note = peptide derived from viral capsid protein) [compound 445],,,,,group III [5]: X
DKAYDQQLKAGDNP (REGION 1..14: note = peptide derived from viral capsid protein) [SEQ ID NO: 1941],,X,X,X,
483 (TMSAGGGGPLGDNNQ; REGION 1..15: note = peptide derived from viral capsid protein) [compound 483],,,,,group III [5]: X
318 (DKGEPVNEADAAALE; REGION 1..15: note = peptide derived from viral capsid protein) [compound 318],X,,,,
432 (GSSSGNWHCDSTWLG; REGION 1..15: note = peptide derived from viral capsid protein) [compound 432],,,,,group III [5]: X
297 (DSLVNPGVAMATHDD; REGION 1..15: note = peptide derived from viral capsid protein) [compound 297],X,,,,
333 (MITDEEEIRTTNPVA; REGION 1..15: note = peptide derived from viral capsid protein) [compound 333],X,,,,

Substance,group III [1],group I [2],group II [3],group III [4],other results
406 (NNNSEFAWPGASSWA; REGION 1..15: note = peptide derived from viral capsid protein) [compound 406],,,,,group III [5]: X
337 (ADNNEGADGVGNSSG; REGION 1..15: note = peptide derived from viral capsid protein) [compound 337],X,,,,
382 (FHSSYAHSQSLDRLM; REGION 1..15: note = peptide derived from viral capsid protein) [compound 382],X,,,,
341 (TFSYTFEDVPFHSSY; REGION 1..15: note = peptide derived from viral capsid protein) [compound 341],X,,,,
346 (TVAVNLQSSSTDPAT; REGION 1..15: note = peptide derived from viral capsid protein) [compound 346],X,,,,
ESVPDPQPIGEPPA [SEQ ID NO: 1947],,X,X,X,
380 (SSYAHSQSLDRLMNP; REGION 1..15: note = peptide derived from viral capsid protein) [compound 380],X,,,,
282 (FITQYSTGQVTVEME; REGION 1..15: note = peptide derived from viral capsid protein) [compound 282],X,,,,group II [6]: X
335 (VKEVTQNDGTTTIAN; REGION 1..15: note = peptide derived from viral capsid protein) [compound 335],X,,,,
356 (YSTGQVSVEIEWELQ; REGION 1..15: note = peptide derived from viral capsid protein) [compound 356],X,,,,
481 (LGLEAGPPKPKPNQQ; REGION 1..15: note = peptide derived from viral capsid protein) [compound 481],,,,,group III [5]: X
289 (YLEGNMLITSESETQ; REGION 1..15: note = peptide derived from viral capsid protein) [compound 289],X,,,,group II [6]: X
317 (HKDDEEKFFPQSGVL; REGION 1..15: note = peptide derived from viral capsid protein) [compound 317],X,,,,
329 (DADSVPDPQPLGQPP; REGION 1..15: note = peptide derived from viral capsid protein) [compound 329],X,,,,
459 (YSTGQVTVEMEWELK; REGION 1..15: note = peptide derived from viral capsid protein) [compound 459],,,,,group III [5]: X
GNTSQQQTDRNAFY (REGION 1..14: note = peptide derived from viral capsid protein) [SEQ ID NO: 1897],,X,X,X,
383 (FNGLDKGEPVNAADA; REGION 1..15: note = peptide derived from viral capsid protein) [compound 383],X,,,,
DKAYDRQLDSGDNP (REGION 1..14: note = peptide derived from viral capsid protein) [SEQ ID NO: 1926],,X,X,X,
479 (DSTTTIANNLTSTVQ; REGION 1..15: note = peptide derived from viral capsid protein) [compound 479],,,,,group III [5]: X
KNTPVPADPPTTES [SEQ ID NO: 1930],,X,X,X,
SEPRPIGTRYLTRN (REGION 1..14: note = peptide derived from viral capsid protein) [SEQ ID NO: 1964],,X,X,X,
348 (NHYFGYSTPWGYFDF; REGION 1..15: note = peptide derived from viral capsid protein) [compound 348],X,,,,
438 (TTGGTANTQTLGFSQ; REGION 1..15: note = peptide derived from viral capsid protein) [compound 438],,,,,group III [5]: X
